From patent US8748417B2, “Amino-pyrrolidine-azetidine diamides as monoacylglycerol lipase inhibitors” (Janssen Pharmaceutica, NV, priority 2010, dated 2014)

Target: T1, purified wild type MGL (wt-MGLL 6H-11-313) (Homo sapiens, UniProt Q99685)
T1 construct: purified wild type MGL (wt-MGLL 6H-11-313)
T1 sequence (Q99685 1-303): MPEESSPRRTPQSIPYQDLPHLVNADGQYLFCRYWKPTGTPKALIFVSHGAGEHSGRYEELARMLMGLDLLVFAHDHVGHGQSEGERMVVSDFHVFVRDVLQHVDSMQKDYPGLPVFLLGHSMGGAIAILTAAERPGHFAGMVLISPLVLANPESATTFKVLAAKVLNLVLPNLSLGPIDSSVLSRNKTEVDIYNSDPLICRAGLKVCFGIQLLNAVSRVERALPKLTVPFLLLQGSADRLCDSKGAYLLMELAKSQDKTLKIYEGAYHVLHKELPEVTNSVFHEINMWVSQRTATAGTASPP
Test: MGL enzyme activity assay (4MU-B cleavage), wild type MGL
Type: biochemical
Details: wild type MGL 5 nM, 4MU-B 10 μM, 37° C.; read-out: MGL wild type inh IC50
Protocol: All rate-based assays were performed in black 384-well polypropylene PCR microplates (Abgene) in a total volume of 30 μL. Substrate 4-methylumbelliferyl butyrate (4MU-B; Sigma) and either purified mutant MGL (mut-MGLL 11-313 L179S L186S) or purified wild type MGL (wt-MGLL 6H-11-313) were diluted separately into 20 mM PIPES buffer (pH=7.0), containing 150 mM NaCl and 0.001% Tween 20. Compounds of Formula (I) were pre-dispensed (50 nL) into the assay plate using a Cartesian Hummingbird prior to adding 4MU-B (25 μL of 1.2× solution to a final concentration of 10 μM) followed by enzyme (5 μL of a 6× solution to a final concentration of 5 nM) to initiate the reaction. Final compound concentrations ranged from 17 to 0.0003 μM. The fluorescence change due to 4MU-B cleavage was monitored with excitation and emission wavelengths of 335 and 440 nm, respectively, and a bandwidth of 10 nm (Safire^2, Tecan) at 37° C. for 5 min.
The IC50 values for the following compounds were determined using Microsoft Office Excel from a fit of the equation to the concentration-response plot of the fractional activity as a function of inhibitor concentration.

SMILES | IC50 [nM]
O=C(c1ccccc1)N1CC[C@H](NC2CN(C(=O)c3sc4cc(C(F)(F)F)ccc4c3-c3ccccc3)C2)C1 [Cpd 74, (3S)-1-(Phenylcarbonyl)-N-(1-{[3-phenyl-6-(trifluoromethyl)-1-benzothiophen-2-yl]carbonyl}azetidin-3-yl)pyrrolidin-3-amine] | 277
O=C(c1ccccc1)N1CC[C@H](NC2CN(C(=O)c3sc4cc(C(F)(F)F)ccc4c3C3CC3)C2)C1 [Cpd 75, (3S)-N-(1-{[3-Cyclopropyl-6-(trifluoromethyl)-1-benzothiophen-2-yl]carbonyl}azetidin-3-yl)-1-(phenylcarbonyl)pyrrolidin-3-amine] | 210
O=C(c1ccccc1)N1CC[C@H](NC2CN(C(=O)c3sc4cc(F)ccc4c3C3CCC3)C2)C1 [Cpd 79, (3S)-N-{1-[(3-Cyclobutyl-6-fluoro-1-benzothiophen-2-yl)carbonyl]azetidin-3-yl}-1-(phenylcarbonyl)pyrrolidin-3-amine] | 281
Cc1c(C(=O)N2CC(N(C=O)[C@H]3CCN(C(=O)c4ccccc4)C3)C2)sc2ccc(Cl)cc12 [Cpd 81, N-[1-[(5-Chloro-3-methyl-1-benzothiophen-2-yl)carbonyl]azetidin-3-yl]-N-[(3S)-1-(phenylcarbonyl)pyrrolidin-3-yl]formamide] | 4880
Cc1c(C(=O)N2CC(N(C=O)[C@H]3CCN(C(=O)c4nccs4)C3)C2)sc2ccc(Cl)cc12 [Cpd 82, N-{1-[(5-Chloro-3-methyl-1-benzothiophen-2-yl)carbonyl]azetidin-3-yl}-N-[(3S)-1-(1,3-thiazol-2-ylcarbonyl)pyrrolidin-3-yl]formamide] | 231
Cc1c(C(=O)N2CC(N(C=O)[C@H]3CCN(C(=O)c4cscn4)C3)C2)sc2ccc(Cl)cc12 [Cpd 83, N-{1-[(5-Chloro-3-methyl-1-benzothiophen-2-yl)carbonyl]azetidin-3-yl}-N-[(3S)-1-(1,3-thiazol-4-ylcarbonyl)pyrrolidin-3-yl]formamide] | 2440
Cc1c(C(=O)N2CC(N[C@H]3CCN(C(=O)c4ccccc4)C3)C2)sc2cc(F)ccc12 [Cpd 86, (3S)-N-{1-[(6-Fluoro-3-methyl-1-benzothiophen-2-yl)carbonyl]azetidin-3-yl}-1-(phenylcarbonyl)pyrrolidin-3-amine] | 298
Cc1c(C(=O)N2CC(N[C@H]3CCN(C(=O)c4cscn4)C3)C2)sc2cc(F)ccc12 [Cpd 88, (3S)-N-{1-[(6-Fluoro-3-methyl-1-benzothiophen-2-yl)carbonyl]azetidin-3-yl}-1-(1,3-thiazol-4-ylcarbonyl)pyrrolidin-3-amine] | 152
O=C(c1ccccc1)N1CC[C@H](NC2CN(C(=O)c3sc4cc(C(F)(F)F)ccc4c3F)C2)C1 [Cpd 89, (3S)-N-(1-{[3-Fluoro-6-(trifluoromethyl)-1-benzothiophen-2-yl]carbonyl}azetidin-3-yl)-1-(phenylcarbonyl)pyrrolidin-3-amine] | 154
Cc1c(C(=O)N2CC(N[C@H]3CCN(C(=O)c4nccs4)C3)C2)sc2ccc(-c3ccc(C(F)(F)F)cc3)cc12 [Cpd 91, (3S)-N-[1-({3-Methyl-5-[4-(trifluoromethyl)phenyl]-1-benzothiophen-2-yl}carbonyl)azetidin-3-yl]-1-(1,3-thiazol-2-ylcarbonyl)pyrrolidin-3-amine] | < 5
O=C(c1cc2ccc(Br)cc2s1)N1CC(N[C@H]2CCN(C(=O)c3nccs3)C2)C1 [Cpd 95, (3S)-N-{1-[(6-Bromo-1-benzothiophen-2-yl)carbonyl]azetidin-3-yl}-1-(1,3-thiazol-2-ylcarbonyl)pyrrolidin-3-amine] | 410
O=C(c1cscn1)N1CC[C@H](NC2CN(C(=O)c3cc4ccc(Br)cc4s3)C2)C1 [Cpd 96, (3S)-N-{1-[(6-Bromo-1-benzothiophen-2-yl)carbonyl]azetidin-3-yl}-1-(1,3-thiazol-4-ylcarbonyl)pyrrolidin-3-amine] | 1050
O=C(c1cc2cc(Br)ccc2s1)N1CC(N[C@H]2CCN(C(=O)c3nccs3)C2)C1 [Cpd 97, (3S)-N-{1-[(5-Bromo-1-benzothiophen-2-yl)carbonyl]azetidin-3-yl}-1-(1,3-thiazol-2-ylcarbonyl)pyrrolidin-3-amine] | 133
O=C(c1cscn1)N1CC[C@H](NC2CN(C(=O)c3cc4cc(Br)ccc4s3)C2)C1 [Cpd 98, (3S)-N-{1-[(5-Bromo-1-benzothiophen-2-yl)carbonyl]azetidin-3-yl}-1-(1,3-thiazol-4-ylcarbonyl)pyrrolidin-3-amine] | 3100
O=C(c1ccccc1)N1CC[C@H](NC2CN(C(=O)c3cc4cc(Br)ccc4o3)C2)C1 [Cpd 107, (3S)-N-{1-[(5-Bromo-1-benzofuran-2-yl)carbonyl]azetidin-3-yl}-1-(phenylcarbonyl)pyrrolidin-3-amine] | > 16700
O=C(c1ccc2c(-c3ccccc3)ncnc2c1)N1CC(N[C@H]2CCN(C(=O)c3ccccc3)C2)C1 [Cpd 108, (3S)-1-(Phenylcarbonyl)-N-{1-[(4-phenylquinazolin-7-yl)carbonyl]azetidin-3-yl}pyrrolidin-3-amine] | 1030
O=C(c1ccc2c(-c3ccc(C(F)(F)F)cc3)ncnc2c1)N1CC(N[C@H]2CCN(C(=O)c3ccccc3)C2)C1 [Cpd 109, (3S)-1-(Phenylcarbonyl)-N-[1-({4-[4-(trifluoromethyl)phenyl]quinazolin-7-yl}carbonyl)azetidin-3-yl]pyrrolidin-3-amine] | 857
O=C(c1ccc2c(-c3ccccc3)ncnc2c1)N1CC(N[C@H]2CCN(C(=O)c3nccs3)C2)C1 [Cpd 110, (3S)-N-{1-[(4-Phenylquinazolin-7-yl)carbonyl]azetidin-3-yl}-1-(1,3-thiazol-2-ylcarbonyl)pyrrolidin-3-amine] | 311
O=C(c1ccc2c(-c3ccc(C(F)(F)F)cc3)ncnc2c1)N1CC(N[C@H]2CCN(C(=O)c3nccs3)C2)C1 [Cpd 111, (3S)-1-(1,3-Thiazol-2-ylcarbonyl)-N-[1-({4-[4-(trifluoromethyl)phenyl]quinazolin-7-yl}carbonyl)azetidin-3-yl]pyrrolidin-3-amine] | 179
O=C(c1ccc2c(-c3ccccc3)ncnc2c1)N1CC(N[C@H]2CCN(C(=O)c3cscn3)C2)C1 [Cpd 112, (3S)-N-{1-[(4-Phenylquinazolin-7-yl)carbonyl]azetidin-3-yl}-1-(1,3-thiazol-4-ylcarbonyl)pyrrolidin-3-amine] | 1660
O=C(c1ccc2c(cnn2-c2ccccc2)c1)N1CC(N[C@H]2CCN(C(=O)c3nccs3)C2)C1 [Cpd 120, (3S)-N-{1-[(1-Phenyl-1H-indazol-5-yl)carbonyl]azetidin-3-yl}-1-(1,3-thiazol-2-ylcarbonyl)pyrrolidin-3-amine] | 372
O=C(c1ccccc1)N1CC[C@H](NC2CN(C(=O)c3cc4cc(-c5ccccc5)ccc4o3)C2)C1 [Cpd 121, (3S)-N-{1-[(5-Phenyl-1-benzofuran-2-yl)carbonyl]azetidin-3-yl}-1-(phenylcarbonyl)pyrrolidin-3-amine] | 1750
Cc1c(C(=O)N2CC(N[C@H]3CCN(C(=O)c4cscn4)C3)C2)sc2ccc(-c3cccc(C(F)(F)F)c3)cc12 [Cpd 125, (3S)-N-[1-({3-Methyl-5-[3-(trifluoromethyl)phenyl]-1-benzothiophen-2-yl}carbonyl)azetidin-3-yl]-1-(1,3-thiazol-4-ylcarbonyl)pyrrolidin-3-amine] | < 5
O=C(c1ccc2nc(-c3ccccc3)sc2c1)N1CC(N[C@H]2CCN(C(=O)c3nccs3)C2)C1 [Cpd 133, (3S)-N-{1-[(2-Phenyl-1,3-benzothiazol-6-yl)carbonyl]azetidin-3-yl}-1-(1,3-thiazol-2-ylcarbonyl)pyrrolidin-3-amine] | 145
Cc1nc(-c2ccccc2F)sc1C(=O)N1CC(N[C@H]2CCN(C(=O)c3nccs3)C2)C1 [Cpd 134, (3S)-N-(1-{[2-(2-Fluorophenyl)-4-methyl-1,3-thiazol-5-yl]carbonyl}azetidin-3-yl)-1-(1,3-thiazol-2-ylcarbonyl)pyrrolidin-3-amine] | 2930
Cc1nc(-c2ccc(F)cc2)sc1C(=O)N1CC(N[C@H]2CCN(C(=O)c3nccs3)C2)C1 [Cpd 135, (3S)-N-(1-{[2-(4-Fluorophenyl)-4-methyl-1,3-thiazol-5-yl]carbonyl}azetidin-3-yl)-1-(1,3-thiazol-2-ylcarbonyl)pyrrolidin-3-amine] | 1130
Cc1nc(-c2cccc(Cl)c2)sc1C(=O)N1CC(N[C@H]2CCN(C(=O)c3nccs3)C2)C1 [Cpd 136, (3S)-N-(1-{[2-(3-Chlorophenyl)-4-methyl-1,3-thiazol-5-yl]carbonyl}azetidin-3-yl)-1-(1,3-thiazol-2-ylcarbonyl)pyrrolidin-3-amine] | 165
Cc1nc(-c2ccc(Cl)cc2)sc1C(=O)N1CC(N[C@H]2CCN(C(=O)c3nccs3)C2)C1 [Cpd 137, (3S)-N-(1-{[2-(4-Chlorophenyl)-4-methyl-1,3-thiazol-5-yl]carbonyl}azetidin-3-yl)-1-(1,3-thiazol-2-ylcarbonyl)pyrrolidin-3-amine] | 446
